Test system: MV-4-11 cells
Test: Gene expression microarray analysis (Affymetrix PrimeView) and GSEA
Type: cell-based, human
Parameters: RFU PODN (11730768_x_at) / Fold change /veh PODN (11730768_x_at) / RFU LINC00158 (11744669_a_at) / Fold change /veh LINC00158 (11744669_a_at) / RFU DUSP10 (11751237_a_at) / Fold change /veh DUSP10 (11751237_a_at) / RFU ID3 (11757404_x_at) / Fold change /veh ID3 (11757404_x_at) / RFU PLEKHG5 (11737974_s_at) / Fold change /veh PLEKHG5 (11737974_s_at) / RFU LRRC4B (11730491_at) / Fold change /veh LRRC4B (11730491_at) / RFU GIMAP4 (11747438_a_at) / Fold change /veh GIMAP4 (11747438_a_at) / RFU KRT8 (11758183_x_at) / Fold change /veh KRT8 (11758183_x_at) / RFU CNN1 (11734310_a_at) / Fold change /veh CNN1 (11734310_a_at) / RFU VPS37D (11726825_at) / Fold change /veh VPS37D (11726825_at) / RFU C10orf10 (11716522_x_at) / Fold change /veh C10orf10 (11716522_x_at) / RFU KIR2DL2 /// KIR2DL4 /// KIR2DL5A /// KIR2DL5B /// KIR2DS1 /// KIR2DS2 /// KIR2DS3 /// KIR2DS4 /// KIR3DL3 /// KIR3DL3 /// KIR3DS1 (11738374_at) / Fold change /veh KIR2DL2 /// KIR2DL4 /// KIR2DL5A /// KIR2DL5B /// KIR2DS1 /// KIR2DS2 /// KIR2DS3 /// KIR2DS4 /// KIR3DL3 /// KIR3DL3 /// KIR3DS1 (11738374_at) / RFU C1QL1 (11718748_at) / Fold change /veh C1QL1 (11718748_at) / RFU TMPRSS4 (11747572_a_at) / Fold change /veh TMPRSS4 (11747572_a_at) / RFU HAMP (11756126_x_at) / Fold change /veh HAMP (11756126_x_at) / RFU RNFT2 (11725882_a_at) / Fold change /veh RNFT2 (11725882_a_at) / RFU NR4A2 (11747474_a_at) / Fold change /veh NR4A2 (11747474_a_at) / RFU ABCC12 (11746883_a_at) / Fold change /veh ABCC12 (11746883_a_at) / RFU TMEM136 (11760407_x_at) / Fold change /veh TMEM136 (11760407_x_at) / RFU CLDN22 /// WWC2 (11732394_at) / Fold change /veh CLDN22 /// WWC2 (11732394_at) / RFU HLA-DPB1 (11760878_x_at) / Fold change /veh HLA-DPB1 (11760878_x_at) / RFU SPINT1 (11716480_a_at) / Fold change /veh SPINT1 (11716480_a_at) / RFU GAP43 (11754022_s_at) / Fold change /veh GAP43 (11754022_s_at) / RFU A4GNT (11735810_at) / Fold change /veh A4GNT (11735810_at) / RFU PRB3 (11715151_x_at) / Fold change /veh PRB3 (11715151_x_at) / RFU TUBB4B (11761932_at) / Fold change /veh TUBB4B (11761932_at) / RFU CAPN14 (11732068_a_at) / Fold change /veh CAPN14 (11732068_a_at) / RFU TMCC2 (11721928_a_at) / Fold change /veh TMCC2 (11721928_a_at) / RFU IRGQ (11745062_a_at) / Fold change /veh IRGQ (11745062_a_at) / RFU FAM174B (11720279_a_at) / Fold change /veh FAM174B (11720279_a_at) / RFU TMPRSS4 (11748680_a_at) / Fold change /veh TMPRSS4 (11748680_a_at) / RFU FAM212B (11763350_a_at) / Fold change /veh FAM212B (11763350_a_at) / RFU PLEKHG5 (11743358_a_at) / Fold change /veh PLEKHG5 (11743358_a_at) / RFU ZSCAN30 (11745921_a_at) / Fold change /veh ZSCAN30 (11745921_a_at) / RFU CMKLR1 (11741424_a_at) / Fold change /veh CMKLR1 (11741424_a_at) / RFU LOC101060620 /// MAPK8IP1 (11723275_at) / Fold change /veh LOC101060620 /// MAPK8IP1 (11723275_at) / RFU SPTSSB (11747773_x_at) / Fold change /veh SPTSSB (11747773_x_at) / RFU PRSS12 (11739890_at) / Fold change /veh PRSS12 (11739890_at) / RFU BIN1 (11741810_x_at) / Fold change /veh BIN1 (11741810_x_at) / RFU WNT11 (11732464_a_at) / Fold change /veh WNT11 (11732464_a_at) / RFU C10orf10 (11716521_a_at) / Fold change /veh C10orf10 (11716521_a_at) / RFU C5orf56 (11738089_at) / Fold change /veh C5orf56 (11738089_at) / RFU CYB561 (11721691_x_at) / Fold change /veh CYB561 (11721691_x_at) / RFU ANKRD19P (11752326_a_at) / Fold change /veh ANKRD19P (11752326_a_at) / RFU OR2T12 /// OR2T33 /// OR2T8 (11738714_s_at) / Fold change /veh OR2T12 /// OR2T33 /// OR2T8 (11738714_s_at) / RFU VCAN (11748164_a_at) / Fold change /veh VCAN (11748164_a_at) / RFU JSRP1 (11732532_at) / Fold change /veh JSRP1 (11732532_at) / RFU KRTAP10-11 (11738290_x_at) / Fold change /veh KRTAP10-11 (11738290_x_at) / RFU MYO3A (11730013_a_at) / Fold change /veh MYO3A (11730013_a_at) / RFU EBF3 (11725865_a_at) / Fold change /veh EBF3 (11725865_a_at) / RFU CAMK2N1 (11719241_x_at) / Fold change /veh CAMK2N1 (11719241_x_at) / RFU C5orf56 (11738088_a_at) / Fold change /veh C5orf56 (11738088_a_at) / RFU OLFML3 (11715873_a_at) / Fold change /veh OLFML3 (11715873_a_at) / RFU LOC100653217 /// NTM (11731650_a_at) / Fold change /veh LOC100653217 /// NTM (11731650_a_at) / RFU MAPK11 (11762145_a_at) / Fold change /veh MAPK11 (11762145_a_at) / RFU FIZ1 (11724087_x_at) / Fold change /veh FIZ1 (11724087_x_at) / RFU OASL (11726364_x_at) / Fold change /veh OASL (11726364_x_at) / RFU SOX15 (11748057_x_at) / Fold change /veh SOX15 (11748057_x_at) / RFU CD79A (11719716_a_at) / Fold change /veh CD79A (11719716_a_at) / RFU HIST1H1D (11736915_at) / Fold change /veh HIST1H1D (11736915_at) / RFU CASKIN2 (11723855_a_at) / Fold change /veh CASKIN2 (11723855_a_at) / RFU LOC730098 (11760151_x_at) / Fold change /veh LOC730098 (11760151_x_at) / RFU OR4N2 (11742367_at) / Fold change /veh OR4N2 (11742367_at) / RFU PRRT2 (11749266_a_at) / Fold change /veh PRRT2 (11749266_a_at) / RFU SNX32 (11753110_a_at) / Fold change /veh SNX32 (11753110_a_at) / RFU CDHR5 (11726645_a_at) / Fold change /veh CDHR5 (11726645_a_at) / RFU RCAN1 (11760418_a_at) / Fold change /veh RCAN1 (11760418_a_at) / RFU FAM167A (11723789_a_at) / Fold change /veh FAM167A (11723789_a_at) / RFU FAM26E (11764081_at) / Fold change /veh FAM26E (11764081_at) / RFU ISYNA1 (11749810_s_at) / Fold change /veh ISYNA1 (11749810_s_at) / RFU ACY1 (11761880_at) / Fold change /veh ACY1 (11761880_at) / RFU 11764098_at / Fold change /veh 11764098_at / RFU SAMD14 (11745864_x_at) / Fold change /veh SAMD14 (11745864_x_at) / RFU NPB (11741838_a_at) / Fold change /veh NPB (11741838_a_at) / RFU TMPRSS6 (11731388_a_at) / Fold change /veh TMPRSS6 (11731388_a_at) / RFU KRTAP10-2 (11738614_at) / Fold change /veh KRTAP10-2 (11738614_at) / RFU ARHGAP8 /// PRR5-ARHGAP8 (11727945_x_at) / Fold change /veh ARHGAP8 /// PRR5-ARHGAP8 (11727945_x_at) / RFU KRTAP5-7 /// NADSYN1 (11734609_at) / Fold change /veh KRTAP5-7 /// NADSYN1 (11734609_at) / RFU RASL12 (11751679_a_at) / Fold change /veh RASL12 (11751679_a_at) / RFU CDKN2B (11736163_a_at) / Fold change /veh CDKN2B (11736163_a_at) / RFU PRF1 (11729649_at) / Fold change /veh PRF1 (11729649_at) / RFU, ZNF638 /// ZNF638-IT1 / Fold change vs veh, ZNF638 /// ZNF638-IT1 / RFU, PANK3 / Fold change vs veh, PANK3 / RFU, SH3YL1 / Fold change vs veh, SH3YL1 / RFU, ZEB2 / Fold change vs veh, ZEB2 / RFU, NRIP1 / Fold change vs veh, NRIP1 / RFU, PTTG1IP / Fold change vs veh, PTTG1IP / RFU, CAPN2 / Fold change vs veh, CAPN2 / RFU, MED14 / Fold change vs veh, MED14 / RFU, SNORA58 / Fold change vs veh, SNORA58 / RFU, C1orf63 / Fold change vs veh, C1orf63 / RFU, LRRFIP1 / Fold change vs veh, LRRFIP1 / RFU, NDUFAF7 / Fold change vs veh, NDUFAF7 / RFU, SLC12A2 / Fold change vs veh, SLC12A2 / RFU, IBTK / Fold change vs veh, IBTK / RFU, ESF1 / Fold change vs veh, ESF1 / Fold change vs veh, TMEM50B / RFU, TAOK1 / Fold change vs veh, TAOK1 / RFU, ACBD3 / Fold change vs veh, ACBD3 / RFU, TMA16 / Fold change vs veh, TMA16 / RFU, RWDD3 / Fold change vs veh, RWDD3 / RFU, BCAT1 / Fold change vs veh, BCAT1 / RFU, EDEM3 / Fold change vs veh, EDEM3 / RFU, TMEM33 / Fold change vs veh, TMEM33 / RFU, WDR75 / Fold change vs veh, WDR75 / RFU, AHCTF1 / Fold change vs veh, AHCTF1 / RFU, TFRC / Fold change vs veh, TFRC / RFU, ZDHHC17 / Fold change vs veh, ZDHHC17 / RFU, NOM1 / Fold change vs veh, NOM1 / RFU, ARL8B / Fold change vs veh, ARL8B / RFU, ZBTB11 / Fold change vs veh, ZBTB11 / RFU, TAMM41 / Fold change vs veh, TAMM41 / RFU, KIAA1704 /// LOC100996395 / Fold change vs veh, KIAA1704 /// LOC100996395 / RFU, ING1 / Fold change vs veh, ING1 / RFU, TRMT61B / Fold change vs veh, TRMT61B / RFU, FUBP3 / Fold change vs veh, FUBP3 / RFU, TP53 / Fold change vs veh, TP53 / RFU, TNKS2 / Fold change vs veh, TNKS2 / RFU, ZFP14 / Fold change vs veh, ZFP14 / RFU, ACTR2 / Fold change vs veh, ACTR2 / RFU, PPP3R1 / Fold change vs veh, PPP3R1 / RFU, PIK3R1 / Fold change vs veh, PIK3R1 / RFU, HNRNPA1 / Fold change vs veh, HNRNPA1 / RFU, RNF170 / Fold change vs veh, RNF170 / RFU, ZNF28 / Fold change vs veh, ZNF28 / RFU, RNGTT / Fold change vs veh, RNGTT / RFU, OGT / Fold change vs veh, OGT / RFU, BRD1 / Fold change vs veh, BRD1 / RFU, MARS / Fold change vs veh, MARS / RFU, ZNF655 / Fold change vs veh, ZNF655 / RFU, FAHD1 / Fold change vs veh, FAHD1 / RFU, BDP1 / Fold change vs veh, BDP1 / RFU, LRRCC1 / Fold change vs veh, LRRCC1 / RFU, ARID1A / Fold change vs veh, ARID1A / RFU, ZNF146 / Fold change vs veh, ZNF146 / RFU, ZNF330 / Fold change vs veh, ZNF330 / RFU, GPN3 / Fold change vs veh, GPN3 / RFU, C9orf123 / Fold change vs veh, C9orf123 / RFU, N4BP2L2 / Fold change vs veh, N4BP2L2 / RFU, ARFIP1 / Fold change vs veh, ARFIP1 / RFU, FAM179B / Fold change vs veh, FAM179B / RFU, BCL10 / Fold change vs veh, BCL10 / RFU, UHRF1BP1L / Fold change vs veh, UHRF1BP1L / RFU, BET1 / Fold change vs veh, BET1 / RFU, CNOT2 / Fold change vs veh, CNOT2 / RFU, ZNF268 / Fold change vs veh, ZNF268 / Fold change vs veh, ZNF507 / RFU, DGCR2 / Fold change vs veh, DGCR2 / RFU, WDSUB1 / Fold change vs veh, WDSUB1 / Fold change vs veh, HSP90B1 /// MIR3652 / RFU, ADSS / Fold change vs veh, ADSS / RFU, GK / Fold change vs veh, GK / RFU, ZNF148 / Fold change vs veh, ZNF148 / RFU, TAF9 / Fold change vs veh, TAF9 / RFU, SLC1A5 / Fold change vs veh, SLC1A5 / RFU, SLMO2 / Fold change vs veh, SLMO2 / RFU, ABCC4 / Fold change vs veh, ABCC4 / RFU, LOC101060439 /// RAP1B / Fold change vs veh, LOC101060439 /// RAP1B / RFU, RFX7 / Fold change vs veh, RFX7 / RFU, GTPBP10 / Fold change vs veh, GTPBP10 / RFU, CNEP1R1 / Fold change vs veh, CNEP1R1 / RFU, BIVM-ERCC5 /// ERCC5 / Fold change vs veh, BIVM-ERCC5 /// ERCC5 / RFU, ILF3 / Fold change vs veh, ILF3 / RFU 11762660_at / Fold change /veh 11762660_at / RFU VCAN (11757783_s_at) / Fold change /veh VCAN (11757783_s_at) / RFU DDX43 (11728927_at) / Fold change /veh DDX43 (11728927_at) / RFU KRT8 (11758188_x_at) / Fold change /veh KRT8 (11758188_x_at) / RFU NKD1 (11759106_at) / Fold change /veh NKD1 (11759106_at) / RFU SRD5A1 (11742802_a_at) / Fold change /veh SRD5A1 (11742802_a_at) / RFU TPSAB1 /// TPSB2 (11721975_s_at) / Fold change /veh TPSAB1 /// TPSB2 (11721975_s_at) / RFU GSTM3 (11746129_a_at) / Fold change /veh GSTM3 (11746129_a_at) / RFU IL23R (11737362_x_at) / Fold change /veh IL23R (11737362_x_at) / RFU TMEM51 (11727254_a_at) / Fold change /veh TMEM51 (11727254_a_at) / RFU PIWIL2 (11732686_x_at) / Fold change /veh PIWIL2 (11732686_x_at) / RFU ORM1 (11744905_x_at) / Fold change /veh ORM1 (11744905_x_at) / RFU CCDC152 (11743942_at) / Fold change /veh CCDC152 (11743942_at) / RFU ECM1 (11717891_a_at) / Fold change /veh ECM1 (11717891_a_at) / RFU IL23R (11748794_a_at) / Fold change /veh IL23R (11748794_a_at) / RFU TNFAIP8L3 (11732012_x_at) / Fold change /veh TNFAIP8L3 (11732012_x_at) / RFU MBOAT4 (11741988_at) / Fold change /veh MBOAT4 (11741988_at) / RFU 11764193_at / Fold change /veh 11764193_at / RFU TMEM53 (11763286_at) / Fold change /veh TMEM53 (11763286_at) / RFU MAGEB2 (11727129_at) / Fold change /veh MAGEB2 (11727129_at) / RFU TMEM200A (11744735_a_at) / Fold change /veh TMEM200A (11744735_a_at) / RFU CCDC152 (11751479_a_at) / Fold change /veh CCDC152 (11751479_a_at) / RFU FAM211A (11726209_a_at) / Fold change /veh FAM211A (11726209_a_at) / RFU RGS16 (11746705_a_at) / Fold change /veh RGS16 (11746705_a_at) / RFU VCAN (11755009_s_at) / Fold change /veh VCAN (11755009_s_at) / RFU RHOB (11743442_s_at) / Fold change /veh RHOB (11743442_s_at) / RFU RGS16 (11720943_a_at) / Fold change /veh RGS16 (11720943_a_at) / RFU RGS16 (11720944_at) / Fold change /veh RGS16 (11720944_at) / RFU, VPS4B / Fold change vs veh, VPS4B / RFU, CREB1 / Fold change vs veh, CREB1 / RFU, DNAJC13 / Fold change vs veh, DNAJC13 / RFU, GNAQ / Fold change vs veh, GNAQ / RFU, CDK5R1 / Fold change vs veh, CDK5R1 / RFU, ZRANB3 / Fold change vs veh, ZRANB3 / RFU, CUL4A / Fold change vs veh, CUL4A / RFU, CCNY / Fold change vs veh, CCNY / RFU, UFL1 / Fold change vs veh, UFL1 / RFU, COG3 / Fold change vs veh, COG3 / RFU, DIAPH2 / Fold change vs veh, DIAPH2 / RFU, SKA2 / Fold change vs veh, SKA2 / RFU, AFF3 / Fold change vs veh, AFF3 / RFU, LMF1 / Fold change vs veh, LMF1 / RFU, IPO11 / Fold change vs veh, IPO11 / RFU, DFFB / Fold change vs veh, DFFB / RFU, FOXP1 / Fold change vs veh, FOXP1 / RFU, CARD8 / Fold change vs veh, CARD8 / RFU, STRN3 / Fold change vs veh, STRN3 / RFU, ADK / Fold change vs veh, ADK / RFU, RASSF2 / Fold change vs veh, RASSF2 / RFU, WIPF1 / Fold change vs veh, WIPF1 / RFU, LARP1B / Fold change vs veh, LARP1B / RFU, RASA1 / Fold change vs veh, RASA1 / RFU, RB1 / Fold change vs veh, RB1 / RFU, PPFIA1 / Fold change vs veh, PPFIA1 / RFU, MAT2A / Fold change vs veh, MAT2A / RFU, CCT5 / Fold change vs veh, CCT5 / RFU, WDR92 / Fold change vs veh, WDR92 / RFU, CUX1 / Fold change vs veh, CUX1 / RFU, TTC7A / Fold change vs veh, TTC7A / RFU, TMEM135 / Fold change vs veh, TMEM135 / RFU, DEPTOR / Fold change vs veh, DEPTOR / RFU, CPM / Fold change vs veh, CPM / RFU, DNAJB6 / Fold change vs veh, DNAJB6 / RFU, CACNA2D3 / Fold change vs veh, CACNA2D3 / RFU, DTX4 / Fold change vs veh, DTX4 / RFU, TFCP2 / Fold change vs veh, TFCP2 / RFU, GMCL1 /// GMCL1P1 / Fold change vs veh, GMCL1 /// GMCL1P1 / RFU, AEBP2 / Fold change vs veh, AEBP2 / RFU, SNHG1 /// SNORD22 /// SNORD25 /// SNORD26 /// SNORD27 /// SNORD28 /// SNORD29 /// SNORD31 / Fold change vs veh, SNHG1 /// SNORD22 /// SNORD25 /// SNORD26 /// SNORD27 /// SNORD28 /// SNORD29 /// SNORD31 / Fold change (Aza/veh), C12orf56 (ProbeSet 11735607_a_at) / Fold change (ACY-1035/veh), C12orf56 (ProbeSet 11735607_a_at) / Fold change (Aza/veh), FGFR1OP (ProbeSet 11751329_s_at) / Fold change (ACY-1035/veh), FGFR1OP (ProbeSet 11751329_s_at) / Fold change (Aza/veh), VPS36 (ProbeSet 11739960_a_at) / Fold change (ACY-1035/veh), VPS36 (ProbeSet 11739960_a_at) / RFU SYPL1 (11715823_x_at) / Fold change /veh SYPL1 (11715823_x_at) / RFU IGFBP7 (11715501_s_at) / Fold change /veh IGFBP7 (11715501_s_at) / RFU REEP3 (11722064_at) / Fold change /veh REEP3 (11722064_at) / RFU IGLL1 (11728026_x_at) / Fold change /veh IGLL1 (11728026_x_at): dose or concentration left out as unconfirmed
Conditions: ProbeSet 11718569_a_at; LIST D

Q: With Nc1ccc(-c2cccs2)cc1NC(=O)c1ccc2c(c1)cc(C1CC1)n2CCN1CCOCC1 [ACY-1035] as the compound, how does the “RFU, WIPF1” value read?
A: 108.27 RFU
